In ChEMBL document CHEMBL3352169, “Fragment-based hit discovery and structure-based optimization of aminotriazoloquinazolines as novel Hsp90 inhibitors” (Bioorg Med Chem, 2014):

Key:
[1] = Permeability across apical to basolateral side in human Caco2 cells; type: ADME, cell-based; details: Caco-2
[2] = Intrinsic clearance in human liver microsomes; type: ADME; details: read-out: CLH
[3] = Intrinsic clearance in rat liver microsomes; type: ADME; details: read-out: CLH
[4] = Clearance in mouse at 5 mg/kg, iv; type: ADME, organism-based; set-up: dose 5 mg/kg, route intravenous; details: in vivo
[5] = Oral bioavailability in mouse at 5 mg/kg; type: ADME, organism-based; details: in vivo

SMILES: OCCCNc1ccc2c(c1)nc(-c1ccc3c(c1)OCO3)n1ncnc21
- Papp A→B [1]: 654 nm/s
- CLint scaled [2]: 1.75 L/h/kg
- CLint scaled [3]: 36 L/h/kg
- clearance [4]: 7.92 L/h/kg
- bioavailability [5]: 1.5%
